Experimental data from US11548900B2, “Oxazino-quinazoline and oxazino-quinoline type compound, preparation method and uses thereof” (BEIJING SCITECH-MQ PHARMACEUTICALS LIMITED, priority 2018, dated 2023).

What was measured:
[1] = molecular target: HER2 kinase (Homo sapiens (Human), UniProt P04626); assay: Inhibition of HER2 kinase activity (ULight-labeled PolyGT substrate); type: biochemical; settings: HER2 kinase 10 nM, ATP 10 μM, 2 hours
How it was run: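 HER2 kinase at 10 nM with 10 μM ATP and 100 nM ULight-PolyGT, 5 min enzyme–compound preincubation, then 2 h reaction at room temperature in the dark. Compounds at 11 3-fold concentrations, 2.5 μM top to 0.042 nM, 1% DMSO, duplicates. TR-FRET 665/615 ratio; IC50 from inhibition versus DMSO and no-compound controls.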

[2] = system: HCC827 cells; assay: Inhibition of cell proliferation, HCC827 (CCK-8, 72 h); type: cell-based; settings: Homo sapiens, 72 h incubation
Method: The assay for the inhibition of cell proliferation by small molecular compounds was carried out using the method as follows:
1. 600 μL pancreatin was added to a T75 cell culture flask, which was digested in a 37° C. incubator for about 1 min before 5 mL of DMEM complete culture solution was added, blew evenly, transferred to a 15 mL centrifuge tube, and centrifuged at 1000 rpm for 4 min;
2. The supernatant was removed and 5 mL DMEM complete culture solution was added, blew evenly, and 10 μL cell suspension was taken and mixed with 10 μL 0.4% Trypan Blue, and counted using a cell counter;
3. BT474 and HCC827 cell lines were seeded in 96-well plates at a cell density of 10,000 and 3000 cells/well/80 μL, respectively, and cultured overnight. Only sterile water was added to the 36 wells on the periphery of the 96-well plate without adding cells, and only the 60 wells in the center of the 96-well plate were used for cell assays and controls;
4. Dilution of compounds: the compounds were diluted with a 3-fold dilution to make 10 concentrations in total with an initial concentration of 10 mM;
5. 20 μL of different compounds with different concentrations were added to each well, and 20 μL of complete culture solution was added to the remaining wells. The final concentration of DMSO in each well is 0.25%;
6. After 72 h of incubation, 10 μL CCK-8 reagent was added to each well, and incubated at 37° C. for 1-2 h; and the OD value was read at 450 nm;
7. Cell survival rate (%)=[(As−Ab)/(Ac−Ab)]*100%
As: Assay well (medium containing cell, CCK-8, compound)
Ac: Control well (medium containing cell, CCK-8)
Ab: Blank well (CCK-8, medium without cell and compound)
8. The value was imported into Graphpad Prism5 software for the calculation of IC50s (compound concentration at which 50% maximum survival rate is observed).

[3] = system: BT474 cells; assay: Inhibition of cell proliferation, BT474 (CCK-8, 72 h); type: cell-based; settings: Homo sapiens, BT-474, 72 h incubation
How it was run: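 BT474 and HCC827 seeded at 10,000 and 3000 cells/well respectively, cultured overnight, then exposed to 10-point 3-fold compound dilutions (top stock 10 mM; 0.25% DMSO final) for 72 h. Viability by CCK-8, OD450; survival normalised to untreated and cell-free blanks, IC50 from curve fit.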

[4] = molecular target: EGFR kinase (Homo sapiens (Human), UniProt P00533); assay: Inhibition of EGFR kinase activity (ULight-labeled JAK-1 (Tyr1023) peptide substrate); type: biochemical; settings: EGFR kinase 0.35 nM, ATP 150 μM, 2 hours
Chain of EGFR kinase (P00533 25-1210): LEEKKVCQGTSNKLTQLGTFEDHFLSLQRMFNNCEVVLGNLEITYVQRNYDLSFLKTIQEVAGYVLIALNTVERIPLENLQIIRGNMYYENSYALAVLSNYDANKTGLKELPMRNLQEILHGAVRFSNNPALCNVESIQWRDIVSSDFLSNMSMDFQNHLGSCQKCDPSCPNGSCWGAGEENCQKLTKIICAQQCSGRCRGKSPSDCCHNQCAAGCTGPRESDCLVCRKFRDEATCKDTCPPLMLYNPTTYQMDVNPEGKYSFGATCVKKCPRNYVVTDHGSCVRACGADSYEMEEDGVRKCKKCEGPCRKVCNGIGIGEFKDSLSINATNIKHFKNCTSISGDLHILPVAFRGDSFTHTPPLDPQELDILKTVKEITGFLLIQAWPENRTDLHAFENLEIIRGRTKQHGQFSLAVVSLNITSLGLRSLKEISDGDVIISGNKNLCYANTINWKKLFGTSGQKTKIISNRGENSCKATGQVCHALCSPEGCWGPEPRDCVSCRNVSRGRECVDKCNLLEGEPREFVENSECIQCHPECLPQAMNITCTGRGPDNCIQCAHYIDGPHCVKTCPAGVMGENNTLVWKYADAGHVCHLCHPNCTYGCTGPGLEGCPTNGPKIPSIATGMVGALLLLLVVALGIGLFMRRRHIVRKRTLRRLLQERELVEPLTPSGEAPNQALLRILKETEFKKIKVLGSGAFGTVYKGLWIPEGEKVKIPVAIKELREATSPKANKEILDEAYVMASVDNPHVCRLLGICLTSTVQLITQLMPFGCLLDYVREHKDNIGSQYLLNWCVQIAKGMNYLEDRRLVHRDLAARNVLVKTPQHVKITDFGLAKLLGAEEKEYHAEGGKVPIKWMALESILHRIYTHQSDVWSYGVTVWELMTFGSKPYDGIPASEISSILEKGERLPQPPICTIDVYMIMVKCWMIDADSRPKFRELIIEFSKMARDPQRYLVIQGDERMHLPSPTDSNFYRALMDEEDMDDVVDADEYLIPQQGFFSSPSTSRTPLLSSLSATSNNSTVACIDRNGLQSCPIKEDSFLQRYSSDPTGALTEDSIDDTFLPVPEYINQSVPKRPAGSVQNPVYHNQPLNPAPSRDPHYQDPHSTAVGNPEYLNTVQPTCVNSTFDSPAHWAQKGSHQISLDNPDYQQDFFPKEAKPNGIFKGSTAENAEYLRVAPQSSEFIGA
How it was run: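 TR-FRET kinase assay: 0.35 nM EGFR, 150 μM ATP, 100 nM substrate, 2 h at room temperature in the dark after 5 min enzyme-compound preincubation, 1% DMSO. Compounds tested as 11-point 3-fold series, 2.5 μM to 0.042 nM final, duplicate; IC50 from 665/615 nm ratio-based inhibition.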

Chain of HER2 kinase (P04626 23-1255): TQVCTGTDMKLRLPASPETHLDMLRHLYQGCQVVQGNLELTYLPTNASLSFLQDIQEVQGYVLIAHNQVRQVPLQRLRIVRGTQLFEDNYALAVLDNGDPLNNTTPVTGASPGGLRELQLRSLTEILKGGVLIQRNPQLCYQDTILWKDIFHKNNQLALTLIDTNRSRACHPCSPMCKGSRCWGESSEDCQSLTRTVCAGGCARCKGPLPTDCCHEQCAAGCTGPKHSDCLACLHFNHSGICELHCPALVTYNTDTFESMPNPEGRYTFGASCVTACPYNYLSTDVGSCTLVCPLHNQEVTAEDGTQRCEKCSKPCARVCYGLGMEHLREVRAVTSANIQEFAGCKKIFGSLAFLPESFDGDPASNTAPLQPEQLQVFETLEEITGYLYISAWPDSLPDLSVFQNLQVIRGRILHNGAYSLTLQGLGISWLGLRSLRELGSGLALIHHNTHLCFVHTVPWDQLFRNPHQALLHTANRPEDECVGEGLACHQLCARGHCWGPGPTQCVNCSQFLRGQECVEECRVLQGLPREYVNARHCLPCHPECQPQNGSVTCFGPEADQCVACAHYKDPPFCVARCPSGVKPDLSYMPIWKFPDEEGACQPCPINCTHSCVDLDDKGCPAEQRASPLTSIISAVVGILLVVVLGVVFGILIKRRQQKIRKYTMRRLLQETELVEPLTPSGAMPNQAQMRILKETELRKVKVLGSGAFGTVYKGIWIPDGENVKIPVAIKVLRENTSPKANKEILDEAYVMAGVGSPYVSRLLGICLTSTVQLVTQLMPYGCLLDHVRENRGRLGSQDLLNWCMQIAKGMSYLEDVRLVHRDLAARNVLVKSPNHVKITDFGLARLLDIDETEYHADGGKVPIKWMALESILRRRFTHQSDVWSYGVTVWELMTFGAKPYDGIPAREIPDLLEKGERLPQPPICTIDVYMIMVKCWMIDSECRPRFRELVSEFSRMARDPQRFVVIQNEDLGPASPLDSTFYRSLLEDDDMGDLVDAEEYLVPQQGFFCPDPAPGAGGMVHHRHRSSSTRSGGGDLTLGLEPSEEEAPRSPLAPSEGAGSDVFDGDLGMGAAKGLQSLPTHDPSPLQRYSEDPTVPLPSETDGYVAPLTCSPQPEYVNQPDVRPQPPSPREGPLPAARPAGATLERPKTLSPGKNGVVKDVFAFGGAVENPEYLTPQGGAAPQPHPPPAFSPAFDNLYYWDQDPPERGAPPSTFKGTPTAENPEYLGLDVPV

Row | Structure (SMILES) | IC50 [1] [nM] | IC50 [2] [nM] | IC50 [3] [nM] | IC50 [4] [nM]
1 | CN(C)C/C=C/C(=O)N1CCOc2c1ccc1ncnc(Nc3ccc(Oc4cccc(Cl)c4)cc3)c21 [Example 48, (E)-4-(dimethylamino)-1-(10-((4-(3-chlorophenoxy)phenyl)amino)-2,3-dihydro-4H-[1,4]oxazino[2,3-f]quinazolin-4-yl)but-2-en-1-one] | ≤ 50 | 500 to 5000 | 50 to 500 | ≤ 50
2 | O=C(/C=C/CN1CCOCC1)N1CCOc2c1ccc1ncnc(Nc3ccc(Oc4ccccc4)cc3)c21 [Example 94, (E)-4-morpholino-1-(10-((4-phenoxyphenyl)amino)-2,3-dihydro-4H-[1,4]oxazino[2,3-f]quinazolin-4-yl)but-2-en-1-one] | ≤ 50 | 500 to 5000 | ≤ 50 | ≤ 50
3 | CN(C)C/C=C/C(=O)N1CCOc2c1ccc1ncnc(Nc3ccc(OCc4ccc(F)cc4)cc3)c21 [Example 60, (E)-4-(dimethylamino)-1-(10-((4-((4-fluorobenzyl)oxy)phenyl)amino)-2,3-dihydro-4H-[1,4]oxazino[2,3-f]quinazolin-4-yl)but-2-en-1-one] | ≤ 50 | 500 to 5000 | ≤ 50 | ≤ 50
4 | COc1cccc(Oc2ccc(Nc3ncnc4ccc5c(c34)OCCN5C(=O)/C=C/CN(C)C)cc2)c1 [Example 56, (E)-4-(dimethylamino)-1-(10-((4-(3-methoxyphenoxy)phenyl)amino)-2,3-dihydro-4H-[1,4]oxazino[2,3-f]quinazolin-4-yl)but-2-en-1-one] | ≤ 50 | 500 to 5000 | ≤ 50 | ≤ 50
5 | O=C(/C=C/CN1CCCCC1)N1CCOc2c1ccc1ncnc(Nc3ccc(Oc4ccccc4)cc3)c21 [Example 93, (E)-1-(10-((4-phenoxyphenyl)amino)-2,3-dihydro-4H-[1,4]oxazino[2,3-f]quinazolin-4-yl)-4-(piperidin-1-yl)but-2-en-1-one] | ≤ 50 | 50 to 500 | ≤ 50 | ≤ 50
6 | CN(C)C/C=C/C(=O)N1CCOc2c1ccc1ncnc(Nc3ccc(OCc4cccc(F)c4)cc3)c21 [Example 61, (E)-4-(dimethylamino)-1-(10-((4-((3-fluorobenzyl)oxy)phenyl)amino)-2,3-dihydro-4H-[1,4]oxazino[2,3-f]quinazolin-4-yl)but-2-en-1-one] | ≤ 50 | > 5000 | ≤ 50 | ≤ 50
7 | Cc1ccccc1COc1ccc(Nc2ncnc3ccc4c(c23)OCCN4C(=O)/C=C/CN(C)C)cc1 [Example 81, (E)-4-(dimethylamino)-1-(10-((4-((2-methylbenzyl)oxy)phenyl)amino)-2,3-dihydro-4H-[1,4]oxazino[2,3-f]quinazolin-4-yl)but-2-en-1-one] | ≤ 50 | 500 to 5000 | ≤ 50 | –
8 | CN(C)C/C=C/C(=O)N1CCOc2c1ccc1ncnc(Nc3ccc(OCc4cc(F)ccc4F)cc3)c21 [Example 89, (E)-1-(10-((4-((2,5-difluorobenzyl)oxy)phenyl)amino)-2,3-dihydro-4H-[1,4]oxazino[2,3-f]quinazolin-4-yl)-4-(dimethylamino)but-2-en-1-one] | ≤ 50 | 500 to 5000 | ≤ 50 | –
9 | CN(C)C/C=C/C(=O)N1CCOc2c1ccc1ncnc(Nc3ccc(OCc4ccccc4Cl)cc3)c21 [Example 80, (E)-4-(dimethylamino)-1-(10-((4-((2-chlorobenzyl)oxy)phenyl)amino)-2,3-dihydro-4H-[1,4]oxazino[2,3-f]quinazolin-4-yl)but-2-en-1-one] | ≤ 50 | 500 to 5000 | ≤ 50 | –
10 | O=C(/C=C/CNC1CCC1)N1CCOc2c1ccc1ncnc(Nc3ccc(OCc4ccccn4)c(Cl)c3)c21 [Example 109, (E)-1-(10-((3-chloro-4-(pyridin-2-ylmethoxy)phenyl)amino)-2,3-dihydro-4H-[1,4]oxazino[2,3-f]quinazolin-4-yl)-4-(cyclobutylamino)but-2-en-1-one] | ≤ 50 | 50 to 500 | ≤ 50 | –
11 | O=C(/C=C/CN1CCOCC1)N1CCOc2c1ccc1ncnc(Nc3ccc(OCc4ccccn4)c(Cl)c3)c21 [Example 103, (E)-1-(10-((3-chloro-4-(pyridin-2-ylmethoxy)phenyl)amino)-2,3-dihydro-4H-[1,4]oxazino[2,3-f]quinazolin-4-yl)-4-morpholinobut-2-en-1-one] | ≤ 50 | 50 to 500 | ≤ 50 | –
12 | CN(C)C/C=C/C(=O)N1CCOc2c1ccc1ncnc(Nc3ccc(OCc4cc(F)ccc4Cl)cc3)c21 [Example 90, (E)-1-(10-((4-((2-chloro-5-fluorobenzyl)oxy)phenyl)amino)-2,3-dihydro-4H-[1,4]oxazino[2,3-f]quinazolin-4-yl)-4-(dimethylamino)but-2-en-1-one] | ≤ 50 | 500 to 5000 | ≤ 50 | –
13 | CN(C/C=C/C(=O)N1CCOc2c1ccc1ncnc(Nc3ccc(OCc4ccccn4)c(Cl)c3)c21)C1CC1 [Example 100, (E)-1-(10-((3-chloro-4-(pyridin-2-ylmethoxy)phenyl)amino)-2,3-dihydro-4H-[1,4]oxazino[2,3-f]quinazolin-4-yl)-4-(cyclopropyl(methyl)amino)but-2-en-1-one] | ≤ 50 | 50 to 500 | ≤ 50 | –
14 | CN(C)C/C=C/C(=O)N1CCOc2c1ccc1ncnc(Nc3ccc(OCc4ccccc4)cc3)c21 [Example 78, (E)-1-(10-((4-(benzyloxy)phenyl)amino)-2,3-dihydro-4H-[1,4]oxazino[2,3-f]quinazolin-4-yl)-4-(dimethylamino)but-2-en-1-one] | ≤ 50 | 500 to 5000 | ≤ 50 | –
15 | CC#CC(=O)N1CCOc2c1ccc1ncnc(Nc3ccc(OCc4ccccn4)c(Cl)c3)c21 [Example 113, 1-(10-((3-chloro-4-(pyridin-2-ylmethoxy)phenyl)amino)-2,3-dihydro-4H-[1,4]oxazino[2,3-f]quinazolin-4-yl)but-2-yne-1-one] | ≤ 50 | 500 to 5000 | 50 to 500 | –
16 | CN(C)C/C=C/C(=O)N1CCOc2c1ccc1ncnc(Nc3ccc(Oc4ccccc4)c(F)c3)c21 [Example 58, (E)-4-(dimethylamino)-1-(10-((3-fluoro-4-phenoxyphenyl)amino)-2,3-dihydro-4H-[1,4]oxazino[2,3-f]quinazolin-4-yl)but-2-en-1-one] | ≤ 50 | 50 to 500 | ≤ 50 | –
17 | CN(C)C/C=C/C(=O)N1CCOc2c1ccc1ncnc(Nc3ccc(OCc4cccc(C#N)c4)cc3)c21 [Example 85, (E)-4-(dimethylamino)-1-(10-((4-((3-cyanobenzyl)oxy)phenyl)amino)-2,3-dihydro-4H-[1,4]oxazino[2,3-f]quinazolin-4-yl)but-2-en-1-one] | ≤ 50 | 500 to 5000 | ≤ 50 | –
18 | COCCN(C)C/C=C/C(=O)N1CCOc2c1ccc1ncnc(Nc3ccc(OCc4ccccn4)c(Cl)c3)c21 [Example 119, (E)-1-(10-((3-chloro-4-(pyridin-2-ylmethoxy)phenyl)amino)-2,3-dihydro-4H-[1,4]oxazino[2,3-f]quinazolin-4-yl)-4-((2-methoxyethyl)(methyl)amino)but-2-en-1-one] | ≤ 50 | 50 to 500 | ≤ 50 | –
19 | CN(C)C/C=C/C(=O)N1CCOc2c1ccc1ncnc(Nc3ccc(OCc4ccccc4F)cc3)c21 [Example 79, (E)-4-(dimethylamino)-1-(10-((4-((2-fluorobenzyl)oxy)phenyl)amino)-2,3-dihydro-4H-[1,4]oxazino[2,3-f]quinazolin-4-yl)but-2-en-1-one] | ≤ 50 | 500 to 5000 | ≤ 50 | –
20 | COc1cccc(COc2ccc(Nc3ncnc4ccc5c(c34)OCCN5C(=O)/C=C/CN(C)C)cc2)c1 [Example 86, (E)-4-(dimethylamino)-1-(10-((4-((3-methoxybenzyl)oxy)phenyl)amino)-2,3-dihydro-4H-[1,4]oxazino[2,3-f]quinazolin-4-yl)but-2-en-1-one] | ≤ 50 | 500 to 5000 | ≤ 50 | –
